Reference: patent US20250144067A1, “PERSONALIZED STARVATION THERAPY FOR CANCER” (Faeth Therapeutics, Inc., priority 2021, published 2025)
Where a name gives a salt, the structure may show the parent alone.

Experiments:
[1] = test system: NCI-H292 lung cancer cells; assay: FDA drug screening, complete media vs cholesterol-free media without statin (TABLE 1); assay type: cell-based, human; details: for Difference: about 0 neutral
[2] = test system: NCI-H292 lung cancer cells; assay: FDA drug screening, complete media vs cholesterol-free media with simvastatin (TABLE 2); assay type: cell-based, human; details: for Cholesterol-free media + simvastatin (0.04 μM) / Complete Media: NCI-H292 cells; for Difference: >0 enhanced anti-cancer activity, about 0 neutral, <0 antagonist
[3] = drug in cholesterol-free media with simvastatin 0.04 μM
[4] = complete media vs cholesterol-free media + simvastatin (0.04 μM)
[5] = Complete minus Cholesterol-free, >0 enhanced anti-cancer activity, <0 antagonist
[6] = NCI-H292 cells, cholesterol-free media without statin, FDA drug library screen
[7] = NCI-H292 cells, complete media, FDA drug library screen
[8] = NCI-H292 cells, cholesterol-free media without statin
[9] = FDA drug library screen, cholesterol-free media with simvastatin 0.04 μM
[10] = FDA drug library screen, complete media
[11] = complete vs cholesterol-free media, >0 enhanced anti-cancer activity, <0 antagonist
[12] = complete media minus cholesterol-free media + simvastatin
[13] = Complete minus Cholesterol-free, greater than 0 enhanced anti-cancer activity, below 0 antagonists
[14] = NCI-H292 cells in cholesterol-free media without statin
[15] = NCI-H292 cells in complete media

| SMILES | Cholesterol-free media + simvastatin (0.04 μM) [2, 3] | Complete Media ([2]; drug in complete media) | Difference [2, 4] | Difference [1, 5] | Cholesterol-free [1, 6] | Complete [1, 7] | Cholesterol-free media + simvastatin (0.04 μM) [2, 9] | Complete Media [2, 10] | Difference [1, 11] | also measured |
| --- | --- | --- | --- | --- | --- | --- | --- | --- | --- | --- |
| CO/N=C(\C(=O)N[C@@H]1C(=O)N2C(C(=O)OCOC(=O)C(C)(C)C)=C(C)CS[C@H]12)c1csc(N)n1.Cl [Cefetamet pivoxil (hydrochloride)] | 1.058 | 0.852 | −0.21 | – | – | – | – | – | – | Difference ([1]; Complete minus Cholesterol-free, greater than 0 enhanced anti-cancer activity, below 0 antagonist): −0.16; Cholesterol-free ([1]; NCI-H292 cells, FDA drug library screen, cholesterol-free media without statin): 1.076; Complete ([1]; NCI-H292 cells, FDA drug library screen, complete media): 0.9196 |
| C=CC1=C(C(=O)O)N2C(=O)[C@@H](NC(=O)/C(=N\OCC(=O)O)c3csc(N)n3)[C@H]2SC1 [Cefixime] | 1.663 | 1.418 | −0.24 | 0.05 | 1.137 | 1.188 | – | – | – | – |
| CO/N=C(\C(=O)N[C@@H]1C(=O)N2C(C(=O)O)=C(CSc3nnnn3C)CS[C@H]12)c1csc(N)n1 [Cefmenoxime (hydrochloride)] | – | – | −0.09 | −0.30 | – | – | 0.8027 | 0.7093 | – | Cholesterol-free [1, 8]: 1.225; Complete ([1]; NCI-H292 cells, complete media): 0.93 |
| CO[C@@]1(NC(=O)CSCC#N)C(=O)N2C(C(=O)O)=C(CSc3nnnn3C)CS[C@@H]21 [Cefmetazole (sodium)] | – | – | −0.16 | – | 0.6502 | 0.9897 | 1.32 | 1.164 | 0.34 | – |
| CO/N=C(\C(=O)N[C@@H]1C(=O)N2C(C(=O)[O-])=C(CSc3nc(C)c(CC(=O)[O-])s3)CS[C@H]12)c1csc(N)n1.[Na+].[Na+] [Cefodizime (sodium)] | 1.29 | 1.088 | −0.20 | 0.06 | 1.009 | 1.069 | – | – | – | – |
| CO/N=C(\C(=O)N[C@@H]1C(=O)N2C(C(=O)O)=C(CSc3nc(C)c(CC(=O)O)s3)CS[C@H]12)c1csc(N)n1 [Cefodizime] | 1.707 | 1.539 | −0.17 | −0.06 | 0.9888 | 0.9297 | – | – | – | – |
| O=C(O)C1=C(CSc2nnnn2CS(=O)(=O)O)CS[C@@H]2[C@H](NC(=O)[C@H](O)c3ccccc3)C(=O)N12 [Cefonicid (sodium)] | – | – | −0.14 | 0.00 | 0.833 | 0.8286 | 1.25 | 1.107 | – | – |
| CCN1CCN(C(=O)N[C@@H](C(=O)N[C@@H]2C(=O)N3C(C(=O)O)=C(CSc4nnnn4C)CS[C@H]23)c2ccc(O)cc2)C(=O)C1=O [Cefoperazone (sodium salt)] | 1.213 | 0.9749 | −0.24 | – | 1.002 | – | – | – | 0.17 | – |
| CCN1CCN(C(=O)N[C@@H](C(=O)N[C@@H]2C(=O)N3C(C(=O)O)=C(CSc4nnnn4C)CS[C@H]23)c2ccc(O)cc2)C(=O)C1=O [Cefoperazone] | – | – | – | – | 0.8233 | 1.132 | 1.061 | 1.748 | 0.31 | Difference [2, 12]: 0.69 |
| NCc1ccccc1CC(=O)N[C@@H]1C(=O)N2C(C(=O)O)=C(CSc3nnnn3CC(=O)O)CS[C@H]12 [Ceforanide] | – | – | – | – | – | – | 1.034 | 1.331 | – | Difference [1, 13]: −0.76; Cholesterol-free [1, 14]: 1.736; Complete [1, 15]: 0.9794; Difference [2, 12]: 0.30 |
| CO/N=C(\C(=O)N[C@@H]1C(=O)N2C(C(=O)O)=C(Cn3ccc(=N)n3CCO)CS[C@H]12)c1csc(N)n1.O=S(=O)(O)O [Cefoselis (sulfate)] | – | – | – | – | 0.955 | 1.116 | – | – | 0.16 | Cholesterol-free media + simvastatin (0.04 μM) ([2]; cholesterol-free media with simvastatin 0.04 μM, cell growth value in FDA drug screen): 1.07; Complete Media ([2]; complete media, cell growth value in FDA drug screen): 1.107; Difference [2, 12]: 0.04 |
| CO/N=C(\C(=O)N[C@@H]1C(=O)N2C(C(=O)O)=C(COC(C)=O)CS[C@H]12)c1csc(N)n1 [Cefotaxime (sodium salt)] | – | – | −0.15 | – | – | – | 1.284 | 1.139 | – | Cholesterol-free [1, 8]: 1.268; Complete ([1]; NCI-H292 cells, complete media): 0.9622; Difference ([1]; complete vs cholesterol-free media, greater than 0 enhanced anti-cancer activity, below 0 antagonists): −0.31 |
| CO/N=C(\C(=O)N[C@@H]1C(=O)N2C(C(=O)O)=C(COC(C)=O)CS[C@H]12)c1csc(N)n1 [Cefotaxime] | – | – | −0.09 | – | – | – | 0.9945 | 0.8998 | – | Difference [1, 13]: −0.57; Cholesterol-free [1, 14]: 1.225; Complete [1, 15]: 0.66 |
